By EC50 is commonly meant the midpoint of the concentration-response curve.

A short description of the experiment: Inhibition of capsid protein in HBV infected in human HepDES19 cells assessed as inhibition of viral replication incubated for 3 days by strand preferential qPCR analysis.
As to `CCOC(=O)C1=C(CN2CC3(CC2=O)CN(C(=O)OC(C)(C)C)C3)NC(c2nccs2)=NC1c1ccc(F)cc1Br` (centres undefined), the concentration giving a half-maximal response (EC50) amounted to 13.3 µM.

With `CCOC(=O)C1=C(CN2CCC3(CCN(C(=O)OC(C)(C)C)C3)C2=O)NC(c2nccs2)=NC1c1ccc(F)cc1Br` (centres undefined), the concentration for a half-maximal effect (EC50) amounted to 5.17 µM.

For the compound `CCOC(=O)C1=C(CN2CC3(CCN(C(=O)OC(C)(C)C)C3)CC2=O)NC(c2nccs2)=NC1c1ccc(F)cc1Br` (centres undefined), the EC50 came to 10 µM.

Take `CCOC(=O)C1=C(CN2CCC3(CNC(=O)C3)C2)NC(c2nccs2)=NC1c1ccc(F)cc1Br` (centres undefined): the EC50 was 2.6 µM.

Consider `CCOC(=O)C1=C(CN2CCC3(CC2)CNC(=O)C3)NC(c2nccs2)=NC1c1ccc(F)cc1Br` (centres undefined), for which the EC50 was 3.8 µM.

`CCOC(=O)C1=C(CN2CCC3(CC2)CNC3=O)NC(c2nccs2)=NC1c1ccc(F)cc1Br` (centres undefined): the EC50 is 1.17 µM.

With `CCOC(=O)C1=C(CN2CCC3(CC(=O)N(Cc4ccccc4)C3=O)C2)NC(c2nccs2)=NC1c1ccc(F)cc1Br` (centres undefined), the EC50 is 2.1 µM.

`CCOC(=O)C1=C(CN2CCC3(CC2)OCCO3)NC(c2nccs2)=NC1c1ccc(F)cc1Br` (centres undefined): the EC50 stood at 0.2 µM.

Take `CCOC(=O)C1=C(CN2CCC3(CC2)CN(C(=O)OC(C)(C)C)C3)NC(c2nccs2)=NC1c1ccc(F)cc1Br` (centres undefined): the EC50 came to 10.4 µM.

As for `CCOC(=O)C1=C(CN2CCC3(CCN(C(=O)OC(C)(C)C)C3)C2)NC(c2nccs2)=NC1c1ccc(F)cc1Br` (centres undefined), the EC50 was 4.83 µM.

As for `CCOC(=O)C1=C(CN2CCC3(C2)CN(C(=O)OC(C)(C)C)C3)NC(c2nccs2)=NC1c1ccc(F)cc1Br` (centres undefined), the EC50 came to 8.83 µM.

`CCOC(=O)C1=C(CN2CCC3(CCNC3=O)CC2)NC(c2nccs2)=NC1c1ccc(F)cc1Br` (centres undefined): the concentration giving a half-maximal response (EC50) stood at 3.43 µM.

For the compound `CCOC(=O)C1=C(CN2CCC3(CC2)CC(=O)NC3=O)NC(c2nccs2)=NC1c1ccc(F)cc1Br` (centres undefined), the EC50 came out at 0.68 µM.

Take `Nc1ccn([C@@H]2CS[C@H](CO)O2)c(=O)n1` [Epivir]: the 50% effective concentration (EC50) stood at 0.37 µM.

(Values after BindingDB's records for doi:10.1016/j.ejmech.2021.113780 (Shandong University, 2021).)
